What all share (type): cell-based, BALB/c mice
Assay [1] concerns murine splenocytes. Description: Cytokine secretion in splenocyte culture supernatants by ELISA, Example I. How it is done: Cytokine analysis. The supernatants from 72 h-splenocytes cultures were collected and their cytokine content was measured. The optimal incubation times were determined from preliminary assays with peptide fractions. The levels of IL-4, IL-10 and IFN-γ were determined using commercial ELISA kits (BioLegend, San Diego, Calif., USA) according to the manufacturer's instructions. Interleukin-2 levels were also measured by ELISA using a commercial kit (BioSource International, Camarillo, Calif., USA) according to the manufacturer's instructions. The results are the means of four or more assays (three wells per sample). The detection limits for IL-2, IL-4, IL-10 and IFN-γ were <8.0, <1.0, <30.0 and <4.0 pg/mL, respectively.
Cytokine analysis were performed at concentration leading to optimal spleen cells proliferation of peptide β-Lg f139-148 (SEQ ID NO. 1) (2000 μg/mL) as reported in Tables 2 and 3. The sequence β-Lg f78-83 (SEQ ID NO. 10), resulting in no effect on the cytokine secretion of resting- and ConA-stimulated murine splenocytes (results not shown), was used as control at concentration of 10 μg/mL for statistical analysis. The effects of the selected peptide on cytokine secretion from splenocytes cultured in the absence and presence of 0.5 μg/mL of ConA are shown in Table 5.
(In general: An ELISA detects its analyte on a solid surface through an enzyme-linked reagent.)

In assay [2] the test system is murine splenocytes. Description: Ex vivo murine splenocytes proliferation assay (Alamar Blue), Example I. The conditions noted are these: for Stimulation index, proliferation of murine splenocytes in the presence of Concavanalin A: ConA 0.5 μg/mL; for Stimulation index, proliferation of resting murine splenocytes: without ConA. As for the experimental part: Ex vivo murine splenocytes proliferation assay. The splenocytes were isolated from 6- to 12-weeks-old female BALB/c mice (Charles River, St-Constant, QC, Canada) and cultured in the absence and presence of suboptimal concentration of ConA (0.5 μg/mL). The peptides were solubilized in complete RPMI medium, agitated overnight at 4° C. then the solutions were adjusted to pH 7. Thereafter, the peptide solutions were added at various final concentrations (10-2000 μg/mL, protein basis) to the wells of 96-well round-bottomed microplates, which were incubated at 37° C. at 80% relative humidity in a 5% CO2 atmosphere for 72 h (with ConA) or 96 h (without ConA). Cell proliferation was evaluated by the reduction of the fluorochrome Alamar Blue™ (BioSource international, Camarillo, Calif., USA), which was added into the wells for the last 24 h of the incubation periods. The fluorescence of the supernatants was monitored at an excitation wavelength of 560 nm and an emission wavelength of 590 nm using a fluorometer (Fluoroscan Ascent, Thermo Electron Inc., Milford, Mass., USA). The assays were performed in triplicate (three wells per sample) and data are expressed as stimulation indices (SI), and calculated using the following equations: […]
In general terms: Alamar Blue is a resazurin reagent that responds to reducing activity.

Assay [3] deals with murine splenocytes. Description: Cytokine profile of splenocyte supernatants, RayBio Mouse Cytokine Antibody Array. The conditions noted are these: peptide 2000 μg/mL + ConA 0.5 μg/mL, 72 h; Cells + ConA = 1. How it is done: Cytokine analyses. After 72 hours, the supernatants from the splenocyte cultures with the cells, cells+ConA (0.5 μg/mL), and each of the peptides (2000 μg/mL) in the presence of ConA (0.5 μg/mL) were collected and stored at −20° C. until used for the cytokine detection assay. A cytokine profile analysis was performed by using the RayBio Mouse Cytokine Antibody Array G series 2 (RayBiotech, Inc., Norcross, Ga.), in order to obtain semi-quantitative levels of 32 different growth factors, cytokines and chemokines (Table 7).
Incubation protocol, signal detection, and interpretation of the data were performed according to manufacturer instructions. Results were expressed as the relative quantity of cytokines detected in the culture supernatants calculated according to the following equation: […]

Setting [4] is: splenocytes with ConA 0.5 μg mL^−1, peptide 2000 μg mL^−1.
[5] abbreviates: splenocytes without ConA, peptide 2000 μg mL^−1.

Marks after values point to notes of the source that are not given here. Bounds are passed on as bounds.

Consider “ALKALPMHIR (listed as Homo sapiens) [β-Lg f139-148]”, for which the “IFN-γ secretion in supernatant” value with murine splenocytes [1] (setting [4]) is given as 717.5** pg mL^−1; with murine splenocytes [1] (setting [5]), 81.3** pg mL^−1. The “IL-2 secretion in supernatant” value came to 15.8 pg/mL with murine splenocytes [1] (setting [4]) and 9.3 pg/mL with murine splenocytes [1] (setting [5]). In addition, the results for the “IL-4 secretion in supernatant” value in the assay on murine splenocytes [1] (setting [4]) and in the assay on murine splenocytes [1] (setting [5]) were 3.0** pg mL^−1 and less than 1.0 pg/mL, respectively. Besides, the “IL-10 secretion in supernatant” value in the assay with murine splenocytes [1] (setting [4]) and with murine splenocytes [1] (setting [5]) was less than 30.0 pg/mL each time. Also, the “Stimulation index, proliferation of murine splenocytes in the presence of Concavanalin A” value (“Stimulation index … of Concavanalin A” below) in the assay on murine splenocytes [2] (peptide 10 μg mL^−1, 72 h) is recorded as 2.28; in the assay with murine splenocytes [2] (peptide 100 μg mL^−1, 72 h), 2.24; in the assay with murine splenocytes [2] (peptide 500 μg mL^−1, 72 h) it was 2.36*; with murine splenocytes [2] (peptide 1000 μg mL^−1, 72 h), 2.62**; in the assay with murine splenocytes [2] (peptide 2000 μg mL^−1, 72 h), 2.73**. In addition, the “Stimulation index, proliferation of resting murine splenocytes” value was 1.08* with murine splenocytes [2] (peptide 10 μg mL^−1, 96 h); 1.17** with murine splenocytes [2] (peptide 100 μg mL^−1, 96 h); 1.35** in the assay on murine splenocytes [2] (peptide 500 μg mL^−1, 96 h); 1.53** in the assay with murine splenocytes [2] (peptide 1000 μg mL^−1, 96 h); 1.77** in the assay on murine splenocytes [2] (peptide 2000 μg mL^−1, 96 h).

With “ALPMHIR (listed as Homo sapiens) [β-Lg f142-148]”, the “Stimulation index … of Concavanalin A” value is 2.32 in the assay on murine splenocytes [2] (peptide 10 μg mL^−1, 72 h); 2.30 with murine splenocytes [2] (peptide 100 μg mL^−1, 72 h); 2.36 in the assay with murine splenocytes [2] (peptide 500 μg mL^−1, 72 h); 2.49** in the assay on murine splenocytes [2] (peptide 1000 μg mL^−1, 72 h); 2.63** in the assay with murine splenocytes [2] (peptide 2000 μg mL^−1, 72 h). For the same substance, the “Stimulation index, proliferation of resting murine splenocytes” value in the assay on murine splenocytes [2] (peptide 10 μg mL^−1, 96 h) is recorded as 1.16; with murine splenocytes [2] (peptide 100 μg mL^−1, 96 h) it was 1.17; in the assay on murine splenocytes [2] (peptide 500 μg mL^−1, 96 h) it was 1.37**; in the assay with murine splenocytes [2] (peptide 1000 μg mL^−1, 96 h), 1.61**; in the assay with murine splenocytes [2] (peptide 2000 μg mL^−1, 96 h), 1.73**.

For DAQSAPLR [β-Lg f33-40], in the assay with murine splenocytes [3], the “Relative quantity of IFN-γ in supernatant” value amounted to 0.7, the “Relative quantity of IL-2 in supernatant” value is recorded as 0.6, the “Relative quantity of IL-3 in supernatant” value was 0.1 and the “Relative quantity of IL-4 in supernatant” value was determined as 0.7. Moreover, in the assay on murine splenocytes [3], the “Relative quantity of IL-17 in supernatant” value is recorded as 0.6, the “Relative quantity of RANTES in supernatant” value turned out to be 0.4 and the “Relative quantity of VEGF in supernatant” value is given as 0.8.

Regarding “EILLQK (UniProt P02754 71-76, looked up, fragment) [β-Lg f55-60]”, the “Stimulation index … of Concavanalin A” value in the assay on murine splenocytes [2] (peptide 10 μg mL^−1, 72 h) was 1.96; with murine splenocytes [2] (peptide 100 μg mL^−1, 72 h), 1.92; with murine splenocytes [2] (peptide 500 μg mL^−1, 72 h) it was 1.98; with murine splenocytes [2] (peptide 1000 μg mL^−1, 72 h), 1.93; with murine splenocytes [2] (peptide 2000 μg mL^−1, 72 h) it was 2.34**. The “Stimulation index, proliferation of resting murine splenocytes” value with murine splenocytes [2] (peptide 10 μg mL^−1, 96 h) is 1.05; in the assay on murine splenocytes [2] (peptide 100 μg mL^−1, 96 h) it was 1.09; with murine splenocytes [2] (peptide 500 μg mL^−1, 96 h), 1.16; in the assay on murine splenocytes [2] (peptide 1000 μg mL^−1, 96 h) it was 1.54**; with murine splenocytes [2] (peptide 2000 μg mL^−1, 96 h), 1.54**.

With IDALNENK [β-Lg f84-91], the “Stimulation index … of Concavanalin A” value is reported as 2.20 in the assay on murine splenocytes [2] (peptide 10 μg mL^−1, 72 h); 2.27 in the assay on murine splenocytes [2] (peptide 100 μg mL^−1, 72 h); 2.24 in the assay with murine splenocytes [2] (peptide 500 μg mL^−1, 72 h); 2.18 in the assay on murine splenocytes [2] (peptide 1000 μg mL^−1, 72 h); 2.16 in the assay on murine splenocytes [2] (peptide 2000 μg mL^−1, 72 h). Besides, the “Stimulation index, proliferation of resting murine splenocytes” value in the assay on murine splenocytes [2] (peptide 10 μg mL^−1, 96 h) is reported as 0.99; in the assay with murine splenocytes [2] (peptide 100 μg mL^−1, 96 h), 1.08; in the assay on murine splenocytes [2] (peptide 500 μg mL^−1, 96 h), 1.20*; in the assay with murine splenocytes [2] (peptide 1000 μg mL^−1, 96 h), 1.22*; in the assay with murine splenocytes [2] (peptide 2000 μg mL^−1, 96 h), 1.27**.

With RELKDLK [α-La f10-16], the “Stimulation index … of Concavanalin A” value with murine splenocytes [2] (peptide 10 μg mL^−1, 72 h) was 1.85; in the assay with murine splenocytes [2] (peptide 100 μg mL^−1, 72 h), 1.95; in the assay with murine splenocytes [2] (peptide 500 μg mL^−1, 72 h), 1.95; with murine splenocytes [2] (peptide 1000 μg mL^−1, 72 h), 2.08; in the assay on murine splenocytes [2] (peptide 2000 μg mL^−1, 72 h), 2.26**. Also, the “Stimulation index, proliferation of resting murine splenocytes” value with murine splenocytes [2] (peptide 10 μg mL^−1, 96 h) is 1.06; with murine splenocytes [2] (peptide 100 μg mL^−1, 96 h), 1.19; in the assay with murine splenocytes [2] (peptide 500 μg mL^−1, 96 h) it was 1.47**; in the assay with murine splenocytes [2] (peptide 1000 μg mL^−1, 96 h) it was 1.81**; with murine splenocytes [2] (peptide 2000 μg mL^−1, 96 h) it was 1.97**.

In the case of “VAGTWY (UniProt P02754 31-36, looked up, fragment) [β-Lg f15-20]”, the “Stimulation index … of Concavanalin A” value in the assay with murine splenocytes [2] (peptide 10 μg mL^−1, 72 h) is 1.65; in the assay on murine splenocytes [2] (peptide 100 μg mL^−1, 72 h) it was 1.71; with murine splenocytes [2] (peptide 500 μg mL^−1, 72 h), 1.67; in the assay on murine splenocytes [2] (peptide 1000 μg mL^−1, 72 h) it was 1.78; in the assay with murine splenocytes [2] (peptide 2000 μg mL^−1, 72 h), 1.77. Besides, the “Stimulation index, proliferation of resting murine splenocytes” value in the assay with murine splenocytes [2] (peptide 10 μg mL^−1, 96 h) was 1.01; with murine splenocytes [2] (peptide 100 μg mL^−1, 96 h), 1.12*; with murine splenocytes [2] (peptide 500 μg mL^−1, 96 h), 1.46**; in the assay on murine splenocytes [2] (peptide 1000 μg mL^−1, 96 h), 1.65**; in the assay with murine splenocytes [2] (peptide 2000 μg mL^−1, 96 h), 1.42**.

With “VLVLDTDYKKYLLF (listed as Homo sapiens) [β-Lg f92-105]”, the “Stimulation index … of Concavanalin A” value is reported as 1.92 with murine splenocytes [2] (peptide 10 μg mL^−1, 72 h); 1.92 in the assay on murine splenocytes [2] (peptide 100 μg mL^−1, 72 h); 2.27** with murine splenocytes [2] (peptide 500 μg mL^−1, 72 h); 2.37** in the assay on murine splenocytes [2] (peptide 1000 μg mL^−1, 72 h); 2.69** with murine splenocytes [2] (peptide 2000 μg mL^−1, 72 h). Further, the “Stimulation index, proliferation of resting murine splenocytes” value was 1.00 in the assay on murine splenocytes [2] (peptide 10 μg mL^−1, 96 h); 1.07 with murine splenocytes [2] (peptide 100 μg mL^−1, 96 h); 1.15** in the assay on murine splenocytes [2] (peptide 500 μg mL^−1, 96 h); 1.31** with murine splenocytes [2] (peptide 1000 μg mL^−1, 96 h); 1.55** in the assay on murine splenocytes [2] (peptide 2000 μg mL^−1, 96 h).

For the origin of these results see patent US20090297545A1, “IMMUNOMODULATORY DAIRY PEPTIDES AND USES THEREOF” (Universite Laval, priority 2008, published 2009).
